In US4472304A, “(Amido)N-substituted bleomycins, salts thereof and process for preparation thereof” (Nippon Kayaku Kabushiki Kaisha, priority 1981, dated 1984):

Assays:
[1] = test system: Mycobacterium smegmatis ATCC 607; test: Antimicrobial activity against Mycobacterium smegmatis ATCC 607 (agar plate-cylinder); format: cell-based; conditions: standard bleomycin A2 (copper-free) assumed 1,000 mcg potency/mg
Experimental: (§1) 2. ANT[…] MYC[…] ATCC 607 AND BACILLUS SUBTILIS
(§2) The antimicrobial activity was tested against the captioned test organisms by the method of agar plate-cylinder. The activity was recorded on the assumption that the activity of standard sample of bleomycin A2 (copper-free form) is 1,000 mcg poteney/mg.

[2] = test system: pulmonary fibrosis; test: Pulmonary toxicity (pulmonary fibrosis) in mice; conditions: for Incidence: Number of mice with pulmonary fibrosis (%) / Incidence: Number of mice with pulmonary fibrosis / Grade: Total score of pulmonary fibrosis/total number of samples / Grade: Total score of pulmonary fibrosis/total number of samples (%): ICR mice, 5 mg/kg i.p. once a day for 10 days; for Incidence: Number of mice with pulmonary fibrosis (%) / Incidence: Number of mice with pulmonary fibrosis: 5 weeks observation; for Incidence: Number of mice with pulmonary fibrosis: mice with fibrosis/total; for Grade: Total score of pulmonary fibrosis/total number of samples / Grade: Total score of pulmonary fibrosis/total number of samples (%): points 0, 1, 2, 4, 6; for Ratio (by comparison with "Bleomycin Complex"): versus Bleomycin Complex
[3] = test system: Bacillus subtilis; test: Antimicrobial activity against Bacillus subtilis (agar plate-cylinder); format: cell-based; conditions: standard bleomycin A2 (copper-free) assumed 1,000 mcg potency/mg
Experimental: as §1, §2

Row | SMILES | Antimicrobial potency of Cu-free compound against Mycobacterium smegmatis ATCC 607 [1] | Incidence: Number of mice with pulmonary fibrosis (%) [2] | Incidence: Number of mice with pulmonary fibrosis [2] | Grade: Total score of pulmonary fibrosis/total number of samples [2] | Grade: Total score of pulmonary fibrosis/total number of samples (%) [2] | Ratio (by comparison with "Bleomycin Complex") [2] | Antimicrobial potency of Cu-free compound against Bacillus subtilis [3]
1 | CC[N+](CC)(CCCNC(=O)c1csc(-c2csc(CCNC(=O)C(NC(=O)C(C)C(O)C(C)NC(=O)C(NC(=O)c3nc(C(CC(N)=O)NCC(N)C(=O)NCCCNC(C)c4ccccc4)nc(N)c3C)C(OC3OC(CO)C(O)C(O)C3OC3OC(CO)C(O)C(OC(N)=O)C3O)c3cnc[nH]3)C(C)O)n2)n1)CCCN(Cc1ccccc1)Cc1ccccc1 [Compound 55, 3-{N,N--diethyl-N--[3-(dibenzylamino)propyl]amino}-propyl-amino-(amido)N--[3-((S)-1'-phenylethyl)aminopropyl]-BLM] | 20840 mcg potency/mg | 0% | 0/9 | 0/27 | 0% | 0 | 2150 mcg potency/mg
2 | CCCCCCCCNC(=O)C(N)CNC(CC(N)=O)c1nc(N)c(C)c(C(=O)NC(C(=O)NC(C)C(O)C(C)C(=O)NC(C(=O)NCCc2nc(-c3nc(C(=O)NCCC[N+](CC)(CC)CCCN(Cc4ccccc4)Cc4ccccc4)cs3)cs2)C(C)O)C(OC2OC(CO)C(O)C(O)C2OC2OC(CO)C(O)C(OC(N)=O)C2O)c2cnc[nH]2)n1 (centres unmarked) [Compound 56, 3-{N,N--diethyl-N--[3-(dibenzylamino)propyl]amino}propylamino-(amido)N--[octyl]-BLM] | 41380 mcg potency/mg | 0% | 0/9 | 0/27 | 0% | 0 | 520 mcg potency/mg
3 | Cc1c(N)nc(C(CC(N)=O)NCC(N)C(=O)NCc2ccccc2)nc1C(=O)NC(C(=O)NC(C)C(O)C(C)C(=O)NC(C(=O)NCCc1nc(-c2nc(C(=O)NCCC[N+](C)(CCCN(Cc3ccccc3)Cc3ccccc3)Cc3ccccc3)cs2)cs1)C(C)O)C(OC1OC(CO)C(O)C(O)C1OC1OC(CO)C(O)C(OC(N)=O)C1O)c1cnc[nH]1 (centres unmarked) [Compound 51, 3-{N--methyl-N--benzyl-N--[3-(dibenzylamino)propyl]amino}-propylamino-(amido)N--[benzyl]-BLM] | 24461 mcg potency/mg | 0% | 0/8 | 0/24 | 0% | 0 | 410 mcg potency/mg
4 | Cc1c(N)nc(C(CC(N)=O)NCC(N)C(=O)NCCCNC(C)c2ccccc2)nc1C(=O)NC(C(=O)NC(C)C(O)C(C)C(=O)NC(C(=O)NCCc1nc(-c2nc(C(=O)NCCCNC(C)c3ccccc3)cs2)cs1)C(C)O)C(OC1OC(CO)C(O)C(O)C1OC1OC(CO)C(O)C(OC(N)=O)C1O)c1cnc[nH]1 [Compound 22, 3-((S)-1'-phenylethyl)aminopropylamino-(amido)N--[3-((S)-1'-phenylethyl)aminopropyl]-BLM] | 28030 mcg potency/mg | 13% | 1/8 | 1/21 | 4% | 0.05 | 2800 mcg potency/mg
5 | CCCCCCCCNC(=O)C(N)CNC(CC(N)=O)c1nc(N)c(C)c(C(=O)NC(C(=O)NC(C)C(O)C(C)C(=O)NC(C(=O)NCCc2nc(-c3nc(C(=O)NCCCN(C)CCCNCC4CCCCCCC4)cs3)cs2)C(C)O)C(OC2OC(CO)C(O)C(O)C2OC2OC(CO)C(O)C(OC(N)=O)C2O)c2cnc[nH]2)n1 (centres unmarked) [Compound 59, 3-{N--methyl-N--[3-(cyclooctylmethylamino)propyl]amino}propyl-amino-(amido)N--[octyl]-BLM] | 65733 mcg potency/mg | 0% | 0/9 | 0/27 | 0% | 0 | 5473 mcg potency/mg
6 | Cc1c(N)nc(C(CC(N)=O)NCC(N)C(=O)NCCCNC(C)c2ccccc2)nc1C(=O)NC(C(=O)NC(C)C(O)C(C)C(=O)NC(C(=O)NCCc1nc(-c2nc(C(=O)NCCCN(C)CCCNCc3ccc(Cl)cc3)cs2)cs1)C(C)O)C(OC1OC(CO)C(O)C(O)C1OC1OC(CO)C(O)C(OC(N)=O)C1O)c1cnc[nH]1 [Compound 39, 3-{N--methyl-N--[3-(p-chlorobenzyl)aminopropyl]amino}-propylamino-(amino)N--[3-(S)-1'-phenylethyl)aminopropyl]-BLM] | 14880 mcg potency/mg | 20% | 2/9 | 2/27 | 7% | 0.07 | 2590 mcg potency/mg
7 | CCCCN(CCCC)CCCNC(=O)C(N)CNC(CC(N)=O)c1nc(N)c(C)c(C(=O)NC(C(=O)NC(C)C(O)C(C)C(=O)NC(C(=O)NCCc2nc(-c3nc(C(=O)NCCCN(C)CCCNCC4CCCCCCC4)cs3)cs2)C(C)O)C(OC2OC(CO)C(O)C(O)C2OC2OC(CO)C(O)C(OC(N)=O)C2O)c2cnc[nH]2)n1 (centres unmarked) [Compound 58, 3-[N--methyl-N--[3-(cyclooctylmethylamino)propyl]amino}-propylamino-(amido)N--[3-(di-n-butyamino)propyl]-BLM] | 62418 mcg potency/mg | 0% | 0/9 | 0/27 | 0% | 0 | 5518 mcg potency/mg
8 | CCCCN(CCCC)CCCNC(=O)C(N)CNC(CC(N)=O)c1nc(N)c(C)c(C(=O)NC(C(=O)NC(C)C(O)C(C)C(=O)NC(C(=O)NCCc2nc(-c3nc(C(=O)NCCCNC(C)c4ccccc4)cs3)cs2)C(C)O)C(OC2OC(CO)C(O)C(O)C2OC2OC(CO)C(O)C(OC(N)=O)C2O)c2cnc[nH]2)n1 [Compound 34, 3-((S)-1'-phenylethylamino)propylamino-(amido)N--[3-(di-n-butylamino)propyl]-BLM] | 26023 mcg potency/mg | 0% | 0/8 | 0/24 | 0% | 0 | 2843 mcg potency/mg
9 | Cc1c(N)nc(C(CC(N)=O)NCC(N)C(=O)NCCN2CCNCC2)nc1C(=O)NC(C(=O)NC(C)C(O)C(C)C(=O)NC(C(=O)NCCc1nc(-c2nc(C(=O)NCCCNC(C)c3ccccc3)cs2)cs1)C(C)O)C(OC1OC(CO)C(O)C(O)C1OC1OC(CO)C(O)C(OC(N)=O)C1O)c1cnc[nH]1 [Compound 33, 3-((S)-1'-phenylethylamino)propylamino-(amido)N--[2-(1-piperazinyl)ethyl]-BLM] | 6359 mcg potency/mg | 56% | 5/9 | 11/27 | 41% | 0.44 | 5009 mcg potency/mg
10 | Cc1c(N)nc(C(CC(N)=O)NCC(N)C(=O)NCCCNC(C)c2ccccc2)nc1C(=O)NC(C(=O)NC(C)C(O)C(C)C(=O)NC(C(=O)NCCc1nc(-c2nc(C(=O)NCCCN(C)CCCNCC3CCCCCCC3)cs2)cs1)C(C)O)C(OC1OC(CO)C(O)C(O)C1OC1OC(CO)C(O)C(OC(N)=O)C1O)c1cnc[nH]1 [Compound 60, 3-{N--methyl-N--[3-(cyclooctylmethyl)aminopropyl]amino}-propylamino-(amido)N--[3-((S)-1'-phenylethylamino)propyl]-BLM] | 54345 mcg potency/mg | 0% | 0/9 | 0/27 | 0% | 0 | 7273 mcg potency/mg
11 | Cc1c(N)nc(C(CC(N)=O)NCC(N)C(=O)NCCC[N+](C)(CCCN(Cc2ccccc2)Cc2ccccc2)Cc2ccccc2)nc1C(=O)NC(C(=O)NC(C)C(O)C(C)C(=O)NC(C(=O)NCCc1nc(-c2nc(C(=O)NCCC[N+](C)(CCCN(Cc3ccccc3)Cc3ccccc3)Cc3ccccc3)cs2)cs1)C(C)O)C(OC1OC(CO)C(O)C(O)C1OC1OC(CO)C(O)C(OC(N)=O)C1O)c1cnc[nH]1 (centres unmarked) [Compound 49, 3-{N--methyl-N--benzyl-N--[3-(dibenzylamino)propylamino}-propylamino-(amido)N--{3-{N--methyl-N--benzyl-N--[3-dibenzyl-amino)propyl]amino}propyl}-BLM] | 230 mcg potency/mg | 0% | 0/3 | 0/9 | 0% | 0 | 1 mcg potency/mg
